Literature values in patent US20240108682A1, “COMPOSITIONS AND METHODS FOR INCREASING GLUTATHIONE LEVELS” (Lile Method Research, LLC, priority 2022, published 2024).

Details: Lu SC, Curr Top Cell Regul 36:95-116 (2000)

half-life of glutathione in the blood: seconds to minutes
Compound: N[C@@H](CCC(=O)N[C@@H](CS)C(=O)NCC(=O)O)C(=O)O [glutathione, L-γ-glutamyl-L-cysteinylglycine]
